Laboratory results reported in publication PMC9848259 (Journal of Enzyme Inhibition and Medicinal Chemistry, 2023).

Columns and labels:
[1] = molecular target: T1, BuChE (from equine serum) (Equus caballus, UniProt P81908); assay: biochemical; settings: for IC50: means ± SD of three experiments; for Selectivity for BuChE: IC50(AChE)/IC50(BuChE)
T1 construct: purchased Sigma Aldrich; host or cells: equine serum
Protocol: (§1) The capacity of the novel cyclopentaquinoline hybrids to inhibit AChE (from the electric eel) and BuChE (from equine serum) were determined by the modified colorimetric Ellman’s method[38]^,[39]. Both enzymes, DTNB – Ellman’s reagent (5,5′-dithiobis-(2-nitrobenzoic acid)), acetyltiocholine iodide (ATCI) were obtained from Sigma Aldrich. AChE and BuChE samples in phosphate buffer (PBS) pH 8.0 were incubated in 96-well plates in the presence of the substrate (ATCI), 76 µl of DTNB and the tested compound at various concentration at room temperature for 10 min (AChE) or eight minutes (BuChE).

[2] = molecular target: T2, AChE (from the electric eel) (Electrophorus electricus, UniProt O42275); assay: biochemical; settings: for Selectivity for AChE: IC50(BuChE)/IC50(AChE); for IC50: means ± SD of three experiments
T2 construct: purchased Sigma Aldrich
Protocol: as §1

[3] = calibration substance; cited from earlier work
[4] = molecular target: T3, hyaluronidase (Bos taurus, UniProt Q2YDK3); assay: Hyaluronidase inhibition test (turbidimetric); type: biochemical
T3 sequence (Q2YDK3 36-553): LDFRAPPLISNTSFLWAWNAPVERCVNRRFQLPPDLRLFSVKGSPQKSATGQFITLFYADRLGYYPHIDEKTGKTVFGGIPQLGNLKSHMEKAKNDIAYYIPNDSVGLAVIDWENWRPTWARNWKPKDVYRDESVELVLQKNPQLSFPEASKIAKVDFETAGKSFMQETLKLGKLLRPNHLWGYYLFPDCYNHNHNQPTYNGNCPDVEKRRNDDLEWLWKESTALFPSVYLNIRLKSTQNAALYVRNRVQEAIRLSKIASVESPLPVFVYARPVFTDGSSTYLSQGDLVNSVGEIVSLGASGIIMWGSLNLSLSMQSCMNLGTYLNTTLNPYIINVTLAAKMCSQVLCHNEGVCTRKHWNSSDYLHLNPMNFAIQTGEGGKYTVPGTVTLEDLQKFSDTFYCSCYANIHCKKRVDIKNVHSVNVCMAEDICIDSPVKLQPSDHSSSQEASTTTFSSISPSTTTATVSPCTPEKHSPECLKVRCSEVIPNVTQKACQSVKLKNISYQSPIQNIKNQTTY
Protocol: Hyaluronidase inhibition was established by turbidimetry according to USP XXII-NF XVII[43], which was further adapted to use in 96-well plates by Piwowarski et al.[44] and the principle of this assay is based on the following reaction: hyaluronic acid→hyaluronidase depolymerization products+[…]
The ability to inhibit hyaluronidase was assessed using a turbidimetric method based on spectrophotometric measurement of turbidity resulting from the formation of hyaluronan-bovine albumin complexes in an acidic environment. The analysis was performed against a positive control. Briefly, 20 µl of the tested compound in monosodium phosphate buffer (pH 7.0) was added to 40 µl of hyaluronidase solution (22.55 U/ml, Sigma Aldrich) in the same buffer. The mixture was incubated for 10 min in the dark at 37 °C. Next, 40 µl of hyaluronic acid solution (0.03%, Sigma Aldrich) in monosodium phosphate buffer (pH 5.35) was added to all wells and the mixture was further kept in the dark at 37 °C for 45 min. Finally, 300 µl of bovine serum albumin solution (0.1%, Serva) in sodium acetate buffer (pH 3.75) was added to the mixture, and the 96-well plate was incubated at room temperature for next 10 min. Changes in turbidity at 600 nm were measured by a microplate reader (BioTek, Winooski, VT, USA). Heparin (WZF, Polfa) was used as a positive control. […]

[5] = molecular target: T4, Aβ42 (Homo sapiens, UniProt P05067); assay: In cellulo β-amyloid assay, Th-S fluorescence in E. coli over-expressing Aβ42; type: cell-based, Escherichia coli; settings: 10 µM
T4 construct: expressed in transfected cells; host or cells: Escherichia coli BL21 (DE3), pET vector
Protocol: Inhibition assay in Escherichia coli cells over-expressing amyloid proteins. […] Escherichia coli competent cells BL21 (DE3) were transformed with the required pET vectors carrying the DNA sequence of Aβ42 peptide. Because of the addition of the initiation codon ATG in front of genes, the over-expressed Aβ42 contains an additional methionine residue at their N terminus. For overnight culture preparation, a colony of BL21 (DE3) bearing the plasmid to be expressed was inoculated in 10 ml of M9 minimal medium containing 50 μg/ml of kanamycin at 37 °C. […] The bacterial culture was then grown at 37 °C, with orbital agitation of 250 rpm. When the cell density reached OD600nm–0.6, 980 μL of the culture were transferred into 1.5 ml conical tubes containing 10 μL of the compound to be tested dissolved in DMSO, and 10 μL of 100 mM isopropyl 1-thio-β-D-galactopyranoside (IPTG). The final concentration of the compound was set to 10 μM. The samples were grown overnight at 37 °C under agitation at 1400 rpm, using a Thermomixer (Eppendorf, Hamburg, Germany). […]
The fluorescence normalisation was carried out considering as 100% the Th-S fluorescence of the bacterial cells expressing Aβ42 in the absence of drug, and 0% the Th-S fluorescence of the bacterial cells non-expressing Aβ42 (in absence of the protein production inductor, IPTG). […]

[6] = tested on: Human hepatic stellate cells (HSCs); assay: in vitro; type: cell-based; settings: 0.1 µM, 24 h
Protocol: Human hepatic stellate cells (HSCs, Sciencell) were grown in the Stellate Cell Medium (Sciencell) supplemented with 2% Foetal Bovine Serum (Sciencell), 1% Stellate Cell Growth Supplement (Sciencell) and 1% penicillin/streptomycin solution (Sciencell). The cells were cultured in the incubator at 37 °C and 5% CO2. To start the experiment, the cells were seeded at a density of 5 × 10^3 cells/well in 96-well plates and incubated (37 °C, 5% CO2) for 24 h. After incubation, medium was removed from the wells and the cells were exposed to 100 µl of the compound over a range of concentrations (from 0.1 to 10 µM) or 100 µl of culture medium alone (blank control). The cells were then further incubated for 24 h. After this time, the medium was removed, the cells were washed with PBS and 50 µl of MTT solution (0.75 mg/ml) was added to each well. The plates were incubated in the dark at 37 °C for another two hours. The MTT solution was then removed from the wells and 100 µl of DMSO was added. The plates were incubated at room temperature for 10 min and then 5 µl of Sorensen Buffer was added to each well. The plates were swayed and the absorbance at 570 nm was measured with a microplate reader (Synergy H1, BioTek, Winooski, VT, USA). The cell viability was expressed as a percentage of the control values (blank control)[40]^,[46]^,[47].

[7] = tested on: SH-SY5Y cells; assay: Neuroprotection against rotenone/oligomycin A, co-incubation, MTT test; type: cell-based, human; settings: Rotenone/Oligomycin A 30/10 µM
[8] = tested on: SH-SY5Y cells; assay: Neuroprotection against rotenone/oligomycin A, pre-incubation, MTT test; type: cell-based, human; settings: Rotenone/Oligomycin A 30/10 µM, compound 0.001 µM
[9] = tested on: SH-SY5Y cells; assay: Neuroprotection against H2O2-induced oxidative stress, MTT test; type: cell-based, human; settings: H2O2 100 µM

T2 sequence (O42275 24-633): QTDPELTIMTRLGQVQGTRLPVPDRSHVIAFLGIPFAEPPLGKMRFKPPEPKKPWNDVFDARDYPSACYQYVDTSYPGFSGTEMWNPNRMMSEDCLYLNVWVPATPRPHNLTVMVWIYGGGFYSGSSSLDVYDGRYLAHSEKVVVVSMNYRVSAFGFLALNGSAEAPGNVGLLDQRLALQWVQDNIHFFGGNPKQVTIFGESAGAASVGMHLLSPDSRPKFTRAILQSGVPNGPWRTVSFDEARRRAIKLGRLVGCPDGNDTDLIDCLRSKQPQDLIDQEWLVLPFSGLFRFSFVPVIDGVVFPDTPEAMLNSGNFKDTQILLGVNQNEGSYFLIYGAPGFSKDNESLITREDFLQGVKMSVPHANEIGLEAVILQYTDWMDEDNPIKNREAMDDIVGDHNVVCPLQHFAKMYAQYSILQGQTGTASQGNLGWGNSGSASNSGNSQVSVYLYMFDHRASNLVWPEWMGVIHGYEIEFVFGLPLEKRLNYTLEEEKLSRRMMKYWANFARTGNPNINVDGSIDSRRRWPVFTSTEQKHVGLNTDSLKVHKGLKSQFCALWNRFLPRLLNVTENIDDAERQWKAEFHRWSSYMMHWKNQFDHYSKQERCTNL
T1 sequence (P81908 whole entry): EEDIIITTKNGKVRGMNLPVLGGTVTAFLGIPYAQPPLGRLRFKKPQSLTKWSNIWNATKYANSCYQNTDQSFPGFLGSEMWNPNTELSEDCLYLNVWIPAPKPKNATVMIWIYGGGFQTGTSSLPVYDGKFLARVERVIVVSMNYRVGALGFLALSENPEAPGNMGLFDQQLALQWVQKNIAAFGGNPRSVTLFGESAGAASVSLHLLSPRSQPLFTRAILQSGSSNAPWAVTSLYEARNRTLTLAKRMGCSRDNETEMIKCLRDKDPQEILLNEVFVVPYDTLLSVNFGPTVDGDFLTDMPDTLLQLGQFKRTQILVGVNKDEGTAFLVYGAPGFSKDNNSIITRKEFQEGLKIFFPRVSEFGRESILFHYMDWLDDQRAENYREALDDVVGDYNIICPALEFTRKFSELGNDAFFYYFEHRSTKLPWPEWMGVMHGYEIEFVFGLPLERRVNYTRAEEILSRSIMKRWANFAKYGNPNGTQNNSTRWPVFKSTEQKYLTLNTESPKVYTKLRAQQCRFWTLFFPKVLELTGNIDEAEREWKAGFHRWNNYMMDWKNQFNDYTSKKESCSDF
T4 sequence (P05067 672-713): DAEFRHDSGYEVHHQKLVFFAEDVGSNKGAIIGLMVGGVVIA

Row | Compound | IC50 [1] [nM] | Selectivity for AChE [2] | IC50 [2] [nM] | Selectivity for BuChE [1] | further results
1 | O=C(NCCCNc1c2c(nc3ccccc13)CCC2)c1cc(Cl)cc(Cl)c1 [Compound 3b] | 889 ± 27 | 0.56 | 1180 ± 134 |  | 
2 | CC(CN1c2ccccc2Sc2ccccc21)N(C)C.Cl (stereo not drawn) [Promethazine HCl] |  |  |  |  | Experimental properties pKa [3]: 9.10[54]
3 | heparin |  |  |  |  | IC50 [4]: 56400 ± 780 nM
4 | O=C(NCCCCCCCCNc1c2c(nc3ccccc13)CCC2)c1cc(Cl)cc(Cl)c1 [Compound 3g] | 330 ± 34 | 0.22 | 1480 ± 133 | 4.50 | 
5 | O=C(NCCCCCCCCCNc1c2c(nc3ccccc13)CCC2)c1cc(Cl)cc(Cl)c1 [Compound 3h] | 131 ± 11 | 0.91 | 145 ± 13 | 1.10 | 
6 | O=C(NCCNc1c2c(nc3ccccc13)CCC2)c1cc(Cl)cc(Cl)c1 [Compound 3a] | 225 ± 21 | 0.15 | 1540 ± 121 | 6.88 | 
7 | O=C(NCCCCCNc1c2c(nc3ccccc13)CCC2)c1cc(Cl)cc(Cl)c1 [Compound 3d] | 1120 ± 180 | 5.33 | 211 ± 31 | 0.19 | 
8 | O=C(NCCCCCCCCNc1c2c(nc3cc(Cl)ccc13)CCCC2)c1ccc2nc(-c3ccc(Cl)cc3)c3c(c2c1)NCCC3 [DP128, reference compound] |  |  |  |  | anti-amyloid (inhibition) capacity for Aβ42 [5]: 69.2 ± 4.1
9 | Nc1c2c(nc3ccccc13)CCCC2 [Tacrine, 9-amino-1,2,3,4-tetrahydroacridine, reference compound] |  |  |  |  | cell viability (hepatotoxicity, MTT) [6]: 100.67%
10 | O=C(NCCCCNc1c2c(nc3ccccc13)CCC2)c1cc(Cl)cc(Cl)c1 [Compound 3c] | 126 ± 7 | 0.11 | 1160 ± 130 | 9.18 | 
11 | Cc1c(C)c2c(c(C)c1O)CCC(C)(C(=O)O)O2 (stereo not drawn) [Trolox, reference compound] |  |  |  |  | % neuroprotection ([7]; compound 0.001 µM): 5.60%; % neuroprotection ([7]; compound 0.01 µM): 4.67%; % neuroprotection ([7]; compound 0.1 µM): 0.35%; % neuroprotection [8]: 2.15%; % neuroprotection ([9]; compound 0.01 µM): 77.16%; % neuroprotection ([9]; compound 0.1 µM): 91.22%; % neuroprotection ([9]; compound 1 µM): 96.03%; % neuroprotection ([9]; compound 10 µM): 95.05%
12 | O=C(NCCCCCCCNc1c2c(nc3ccccc13)CCC2)c1cc(Cl)cc(Cl)c1 [Compound 3f] | 117 ± 27 | 0.46 | 253 ± 42 | 2.16 | 
